# Source: US11266667B2, “ABX196 for use in the treatment of bladder cancer” (ABIVAX, priority 2017, dated 2022)
# System: MBT-2 tumors
# Test: Anti-tumoral activity in MBT-2 syngeneic ectotopic (subcutaneous) tumor model
# Type: in vivo, mouse
# Design: key to Statistical significance for tumor growth versus Anti-PD-1: p value < 0.05*; ns: Ns: non significant
# Description: The aim of this study is to determine the anti-tumoral activity of ABX196 or of anti-PD-1 antibody, administered systemically alone, in MBT2 syngeneic ectotopic models and in particular, to evaluate the capacity of these agents to treat established sub-cutaneous tumors.
# Anti-PD-1 antibody (ref.: BE0146, BioXcell; clone: RMP1-14, reactivity: mouse; isotype: Rat IgG2a; storage conditions: +4° C.). Anti-PD-1 antibody is prepared in phosphate buffered saline (PBS) or other suitable vehicle according to manufacturer's recommendation. The anti-PD-1 antibody is administered at the dose of 10 mg/kg. Anti-PD-1 antibody is injected into the peritoneal cavity of mice (Intraperitoneally, IP). Anti-PD-1 antibody is administered at a dose volume of 10 mL/kg/adm.
# ABX196 is provided as a solution at […] and is administered at the dose of 100 ng per mouse. ABX196 is injected by the intravenous route in the caudal vein of mice (IV, bolus). ABX196 is administered at a fixed dose volume of 100 μL (i.e. approximately 5 mL/kg/adm. for one mouse weighing 20 g).
# Tumor cells are grown as monolayer at 37° C. in a humidified atmosphere (5% CO2, 95% air). The culture medium is RPMI 1640 containing 2 mM L-glutamine (ref: BE12-702F, Lonza, Verviers, Belgium) supplemented with 10% fetal bovine serum (ref: 3302, Lonza). Tumor cells are adherent to plastic flasks. For experimental use, tumor cells are detached from the culture flask by a 5-minutes treatment with trypsin-versene (ref: BE02-007E, Lonza), in Hanks' medium without calcium or magnesium (ref: BE10-543F, Lonza) and neutralized by addition of complete culture medium.
# 68 (sixty-eight) healthy female C3H/HeJ (C3H/HeOuJ) mice, 6-7 weeks old, are obtained from The Jackson Laboratory (Bar Harbor, Me.) for the MBT-2 model.
# MBT-2 tumors are induced by subcutaneous injection of 1×10^6 cells in 200 μL of RPMI 1640 into the right flank of the sixty-eight female animals.
# The treatment starts when the tumors reach a mean volume of 80-120 mm^3 (day 13 in this experiment). The sixty-eight mice for the MBT-2 model are randomized according to their individual tumor volume into 4 groups each (one not shown) of 12 animals using Vivo Manager® software (Biosystemes, Couternon, France). A statistical test (analysis of variance, ANOVA) is performed to test for homogeneity between groups. The treatment schedule was chosen as follows:
# Animals from group 1 receive an IV injection of ABX196 vehicle and an IP injection of anti-PD-1 antibody vehicle,
# Animals from group 2 receive an IV injection of 100 ng of ABX196,
# Animals from group 3 receive twice weekly administrations of anti-PD-1 antibody,
# Tumor growth inhibition (T/C) is defined as the ratio of the median tumor volumes of treated versus control group. The optimal value is the minimal T/C ratio reflecting the maximal tumor growth inhibition achieved.
# [1] = day 20, one way ANOVA, pair wise Bonferroni's multiple comparison test
smiles,measurement,setting,value
CCCCCCCCCCCCCCCCCCCCCCCC(=O)N[C@@H](CO[C@H]1O[C@H](CNC(C)=O)[C@H](O)[C@H](O)[C@H]1O)[C@H](O)[C@H](O)CCCCCCCCCCCCCC [ABX196],"T/C (%) (tumor growth inhibition, ratio of median tumor volumes of treated versus control group)","C3H/HeJ mice with subcutaneous MBT-2 tumors, day 23 after tumor induction, ABX196 100 ng IV Q1Dx1, anti-PD-1 10 mg/kg IP TWx2",54%
same,Statistical significance for tumor growth versus Anti-PD-1,[1],ns
same,Statistical significance for tumor growth versus Vehicle,[1],* (p value < 0.05*)
same,"Mean tumor volume in function of time after tumor induction (FIG. 1), compared with anti-PD-1 antibodies","subcutaneous MBT-2 tumors, ABX196 100 ng IV Q1Dx1",reduces more efficiently the tumor volume than anti-PD-1 antibodies
same,"Tumor growth inhibition (FIG. 2), compared with anti-PD-1 antibodies","subcutaneous MBT-2 tumors, day 23, ABX196 100 ng IV Q1Dx1",inhibits more efficiently the tumor growth than anti-PD-1 antibodies
